Measurements taken from patent US10501518B2 (priority 2013, dated 2019).

Legend:
trypsin = target: T1, trypsin (Bos taurus, UniProt P00760); experiment: Protease stability (trypsin, HPLC assay); type: in vitro ADME, bovine; conditions: 40 μM peptide, 5 μg/mL trypsin, TBS, room temperature
T1 construct: purchased Sigma Aldrich (St. Louis, Mo.); host or cells: bovine pancreas
T1 sequence (P00760 24-246): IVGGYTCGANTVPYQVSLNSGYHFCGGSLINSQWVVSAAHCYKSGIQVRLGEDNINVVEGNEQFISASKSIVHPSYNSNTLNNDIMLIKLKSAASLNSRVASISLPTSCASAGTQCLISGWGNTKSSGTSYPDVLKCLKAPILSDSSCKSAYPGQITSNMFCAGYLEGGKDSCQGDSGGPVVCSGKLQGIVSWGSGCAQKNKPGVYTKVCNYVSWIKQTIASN
Procedure: Locations of β^3 residues in B5 and D6 are indicated by highlighted residues. Solutions of 40 μM peptide in TBS were incubated at room temperature with 5 μg/mL trypsin. Vertical lines indicate observation by MALDI-MS of one or both products consistent with hydrolysis of the backbone amide bond between the noted residues. […] Each data point represents the average of measurements from duplicate experiments, with error bars corresponding to the standard deviation.
An HPLC assay was used to assess proteolytic stability.^30, 32 Peptide concentration was determined by UV-Vis spectroscopy (calculated from the UV-vis absorption at 280 nm, ε280 nm=5,690 M^−1 cm^−1 for all peptides except D6 and D7, ε280 nm=11,380 M^−1 cm^−1 based on an extinction coefficient for the tryptophan sidechain chromophore of 5,690 M^−1 cm^−1).^33 Peptide stock solutions were prepared in degassed water to a concentration of 200 μM. […] A portion (75 μL) of the quenched reaction mixture was injected onto an analytical RP-HPLC (see peptide synthesis and purification section above), and peaks were analyzed. The time course of peptide degradation was experimentally determined by integrating the area of the peak corresponding to the non-hydrolyzed peptide in a series of HPLC traces, with duplicate proteolysis reactions being used to generate error bars corresponding to the standard deviation. […]

PTHR = target: T2, PTHR (Homo sapiens, UniProt Q03431); experiment: cAMP induction potency, N-terminal modifications and cyclic constraints (Tables 9, 10, 13); type: cell-based; conditions: Table 9
T2 construct: expressed in transfected cells
T2 sequence (Q03431 27-593): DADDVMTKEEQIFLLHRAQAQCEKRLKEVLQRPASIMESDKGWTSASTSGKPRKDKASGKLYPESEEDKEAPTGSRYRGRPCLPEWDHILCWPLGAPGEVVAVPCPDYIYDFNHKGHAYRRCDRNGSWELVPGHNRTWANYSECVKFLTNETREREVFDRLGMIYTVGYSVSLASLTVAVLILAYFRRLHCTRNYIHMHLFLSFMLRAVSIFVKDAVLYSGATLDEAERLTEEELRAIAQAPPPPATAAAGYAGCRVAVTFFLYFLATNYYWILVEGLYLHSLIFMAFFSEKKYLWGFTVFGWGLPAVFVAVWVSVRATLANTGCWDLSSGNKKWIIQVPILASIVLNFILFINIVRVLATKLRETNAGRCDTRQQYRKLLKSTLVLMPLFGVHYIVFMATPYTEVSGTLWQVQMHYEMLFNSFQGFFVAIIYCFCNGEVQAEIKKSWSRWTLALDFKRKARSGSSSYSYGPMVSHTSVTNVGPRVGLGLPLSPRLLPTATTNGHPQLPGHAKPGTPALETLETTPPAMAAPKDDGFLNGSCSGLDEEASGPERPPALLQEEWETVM
Procedure: For cAMP dose-response assays, monolayers of confluent HEK 293 cells were pre-incubated with buffer containing d-luciferin (0.5 mM) in 96 well plates at room temperature until a stable baseline level of luminescence was established (30 min). Varying concentrations of agonist were then added, and the time course of luminescence response was recorded using a Perkin Elmer plate reader following α/β-peptide addition.

Row | SMILES | proteolysis by trypsin (trypsin) | Fold PTH (PTHR) | EC50 (PTHR; read-out: EC50, nM (cAMP induction potency)) [nM]
1 | CC[C@H](C)[C@H](NC(=O)[C@H](CCC(=O)O)NC(=O)[C@H](CO)NC(=O)[C@@H](NC(=O)[C@@H](N)CO)C(C)C)C(=O)N[C@@H](CCC(N)=O)C(=O)N[C@@H](CC(C)C)C(=O)N[C@@H](CCSC)C(=O)N[C@@H](Cc1cnc[nH]1)C(=O)N[C@@H](CC(N)=O)C(=O)N[C@@H](CC(C)C)C(=O)NCC(=O)N[C@@H](CCCCN)C(=O)N[C@H](CC(=O)N[C@@H](CC(C)C)C(=O)N[C@@H](CC(N)=O)C(=O)N[C@@H](CO)C(=O)N[C@@H](CCSC)CC(=O)N[C@@H](CCC(=O)O)C(=O)N[C@@H](CCCNC(=N)N)C(=O)N[C@H](C(=O)N[C@@H](CCC(=O)O)CC(=O)N[C@@H](Cc1c[nH]c2ccccc12)C(=O)N[C@@H](CC(C)C)C(=O)N[C@@H](CCCNC(=N)N)C(=O)N[C@@H](CCCCN)CC(=O)N[C@@H](CCCCN)C(=O)N[C@@H](CC(C)C)C(=O)N[C@@H](CCC(N)=O)C(=O)N[C@@H](CC(=O)O)CC(=O)N[C@H](C(=O)N[C@@H](Cc1cnc[nH]1)C(=O)N[C@@H](CC(N)=O)C(=O)N[C@H](CC(N)=O)Cc1ccccc1)C(C)C)C(C)C)Cc1c[nH]c2ccccc12 [D6] | poorer substrate than is the α-peptide | 2.1 | 0.17 ± 0.05
2 | CC[C@H](C)[C@H](NC(=O)[C@H](CCC(=O)O)NC(=O)[C@H](CO)NC(=O)[C@@H](NC(=O)[C@@H](N)CO)C(C)C)C(=O)N[C@@H](CCC(N)=O)C(=O)N[C@@H](CC(C)C)C(=O)N[C@@H](CCSC)C(=O)N[C@@H](Cc1cnc[nH]1)C(=O)N[C@@H](CC(N)=O)C(=O)N[C@@H](CC(C)C)C(=O)NCC(=O)N[C@@H](CCCCN)C(=O)N[C@@H](Cc1cnc[nH]1)C(=O)N[C@@H](CC(C)C)C(=O)N[C@@H](CC(N)=O)C(=O)N[C@@H](CO)C(=O)N[C@@H](CCSC)C(=O)N[C@@H](CCC(=O)O)C(=O)N[C@@H](CCCN=C(N)N)C(=O)N[C@H](C(=O)N[C@@H](CCC(=O)O)C(=O)N[C@@H](Cc1c[nH]c2ccccc12)C(=O)N[C@@H](CC(C)C)C(=O)N[C@@H](CCCN=C(N)N)C(=O)N[C@@H](CCCCN)C(=O)N[C@@H](CCCCN)C(=O)N[C@@H](CC(C)C)C(=O)N[C@@H](CCC(N)=O)C(=O)N[C@@H](CC(=O)O)C(=O)N[C@H](C(=O)N[C@@H](Cc1cnc[nH]1)C(=O)N[C@@H](CC(N)=O)C(=O)N[C@@H](Cc1ccccc1)C(=O)O)C(C)C)C(C)C [PTH(1-34), reference compound] | Proteolysis was observed at all predicted trypsin cut sites | – | –
